Assays:
[1] = system: latent HIV-based retroviral vector in cell line; assay: Screen of small molecule library on cell line containing a latent HIV-based retroviral vector, GFP expression; conditions: different concentrations; FIG. 7
Excerpt: We screened a library of 6,000 small molecules (library purchased from Chembridge, San Diego) using one of the cell lines containing a latent HIV-based retroviral vector. Viral expression was monitored by GFP expression, as described above. […] The results of a typical induction experiment in which we measured CFP expression in response to different concentrations of the two small molecules (Hit 1 and Hit2) are shown in FIG. 7. The structures of three representative active agents are shown below.

[2] = system: latent HIV promoter (LTR-Tat-IRES-GFP vector) in Jurkat-derived cells; assay: Reactivation of latent LTR-Tat-IRES-GFP vector in Jurkat cells/clones, GFP by flow cytometry; type: cell-based; conditions: for ability to reactivate latent HIV expression (GFP-positive cells and mean fluorescence intensity): clones 82, A1, A7, A10, 10 nM TPA, 10 ng/ml TNF-α, 5 μg/ml PHA, 5 μg/ml anti-CD3, 400 nM TSA, 5 μM aza-dC 48 h
Protocol: To obtain a random library of clones containing the vector LTR-Tat-IRES-GFP integrated, Jurkat cells were infected at an MOI (multiplicity of infection) of 0.1 followed by serial dilution and plating in 96-well plates. Individual clones obtained after 3 weeks were analyzed by flow cytometry for GFP expression. For the purification of latently infected cells, Jurkat cells were infected with the LTR-Tat-IRES-GFP viral stock at an MOI of 0.1 and kept in culture for at least 96 h. GFP-negative (GFP^−) and GFP-positive (GFP^+) cells were separated by fluorescence activated cell sorting (FACS) and further cultured. One week later, GFP^− cells were incubated with 10 nM TPA or 10 ng/ml TNF-α for 17 h.
Jurkat cells were grown in RPMI 1640 medium (Mediatech Cellgro, Herndon, Va.) supplemented with 10% fetal bovine serum, 100 U/ml of penicillin, 100 μg/ml of streptomycin, and 2 mM L-glutamine at 37° C. under a 95% air/5% CO2 atmosphere. Peripheral blood mononuclear cells (PBMCs) were cultivated in the same medium supplemented with 100 U/ml human interleukin (hIL)-2 and were phytohemagglutinin (PHA)-stimulated (5 μg/ml) once every two weeks. 293T cells were grown under the same conditions as Jurkat cells in Dulbecco's modification of Eagle's medium (Mediatech Cellgro, Herndon, Va.). 293T cells were routinely transfected with calcium phosphate. Jurkat cells (10^7 cells/0.4 ml serum-free medium) were electroporated in 0.4-cm gap cuvettes at 250 V and […] (Gene Pulser II, Biorad, Hercules, Calif.). Plasmid DNA for transfections was purified with the Qiagen Plasmid Maxi kit, followed by phenol extraction and ethanol precipitation. To test the HIV promoter inducibility, Jurkat-derived clones were incubated for 17 h with 10 nM tetradecanoyl phorbol acetate (TPA), 10 ng/ml TNF-α, 5 μg/ml PHA, 1 μM ionomycin, 5 μg/ml anti-CD3 antibody, 400 nM Trichostatin A (TSA). Incubations with 5 μM aza-dC lasted for 48 h.
(§1) Cells were washed in PBS and resuspended in PBS containing 1% paraformaldehyde. GFP fluorescence was measured with a FACScalibur machine (Becton Dickinson, San Jose, Calif.). A two narameter analysis to distinguish GFP-derived fluorescence from background fluorescence was used: CFP was measured in FL1 and cellular autofluorescence was monitored in FL2. Electronic compensation was applied during analysis. Analysis was gated on live cells according to forward and side scatter. A gate (R2) containing GFP-positive cells was drawn compared to an uninfected control, and the data shown refer to the percentage of cells in R2 or mean fluorescence intensity (MFI) of those cells. Results shown throughout the manuscript are representative three independent experiments, except when libraries of clones were analyzed. Cell sorting was carried out with a FACSVantage (Becton Dickinson, San Jose, Calif.).

[3] = system: HIV transcription in latent cell lines; assay: HIV-specific mRNA measurement by TaqMan PCR in latent cell lines; type: cell-based; conditions: clone H2; +TNF-α
Protocol: RNA was isolated using TRIzol (Invitrogen) followed by digestion with RQ1 DNase (Promega). First strand cDNA was synthesized using Superscript II (Invitrogen). Taqman PCR was performed on an ABIprism 7700 detector using the following primer/probe set: primer 1: 5′-[…]-3′ (SEQ ID NO:21); primer 2: 5′-[…]-3′ (SEQ ID NO:22); probe 5′-CTGGTAACTAGAGATCCC-3′ (SEQ LD NO:23). The GAPDH primer/probe set was purchased from Applied Biosystems.
FIG. 1A-C. Enrichment and purification of HIV-latently infected cells by FACS. (A) A schematic representation of our enrichment protocol is shown. See text for details. The percentage of GFP-positive cells obtained after infection (4%) or after TNF-α treatment of GFP-cells (0.06%) is shown. Similar data were obtained with TPA. (B) Clonal cell lines isolated using the procedure described above were analyzed for CFP expression under basal and stimulated conditions (24 hr treatment with TNF-α). (C) mRNA levels were measured for HIV and for GAPDH using TaqMan PCR in untreated and TNF-α-treated cell lines. Results are expressed as a percentage of mRNA levels measured in Jurkat cells acutely infected with HIVNL4-3 (day 6 post-infection). Clone A72 is infected with an LTR-CFP construct (Jordan et al. (2001, supra), clone H2 is infected with the LTR-Tat-IRS-GFP vector while clones F11 and G10 are infected with HIV-R7/E^−/GFP.

[4] = system: latent full-length HIV provirus (HIV-R7/E-/GFP) in Jurkat cells; assay: GFP expression in Jurkat cells/clones latently infected with full-length HIV-R7/E-/GFP, flow cytometry; type: cell-based; conditions: for GFP Signal (MFI) / GFP-Positive (%): + TNF-α
Protocol: as §1
The HIV molecular clone (HIV-R7/E^−1/GFP) was constructed by introducing a frameshift mutation in the env gene (by filling-in NdeI site with T4 polymerase) in the backbone of HIV-R7/3/GCF. Bieniasz and Cullen (2000) J. Virol. 74:9868-9877.
To confirm that HIV Latency can be established in the context of a full length provirus, we used a recombinant HIV molecular clone containing the GFP open reading frame in place of the Nef gene (Bieniasz and Cullen (2000) J. Virol. 74:9868-9877) (HIV-R7/E^−/GFP) (FIG. 5A). To restrict our analysis to a single infection cycle, the env gene was suppressed by introduction of a frameshift mutation. […]. We infected a culture of the lymphocytic cell line Jurkat with viral particles containing this HIV genome and used differential fluorescence-activated cell sorting based on GFP expression to isolate GFP-negative cells by FACS 4 days after infection (FIG. 5B). Based on our previous experiments, we predicted that this population harbored both uninfected cells and cells with transcriptionally silenced proviruses. To activate HIV expression, we treated this population with TNF-α and observed that a small fraction of the cell population (1.9%) became positive. These activated cells were purified by FACS based on GFP expression levels (FIG. 5B). These cells were both grown as a group and individually sorted for further characterization.
FIG. 5. Establishment of latently infected cell lines with a full-length HIV provirus. (A) genome organization of a molecular clone of HIV encoding GFP and containing a frameshift mutation in env. (B) Schematic representation of protocol for enrichment of latently-infected cells after infection of Jurkat cells with HIV-R7/E^−/GFP) (see text for detail). (C) Clonal cell lines isolated using the procedure described above were analyzed for GFP expression under basal and stimulated conditions (24 hr treatment with TNF-α).

[5] = system: latent full-length HIV provirus (HIV-R7/E-/GFP) in Jurkat clones; assay: HIV-specific p24 in culture supernatants of latent HIV-R7/E-/GFP clones; type: cell-based; conditions: culture supernatant; for p24 (pg/ml): + TNF-α
Excerpt: When the culture supernatants of the same clones were examined for HIV-specific p24 expression, no or low picogram amounts could be detected under basal conditions (Table I).

[6] = system: latent full-length HIV provirus (HIV-R7/E-/GFP) in Jurkat clones; assay: Western blotting of HIV-specific proteins in latent HIV-R7/E-/GFP clones; type: cell-based; conditions: several clones; particularly gag p55 precursor
Excerpt: Levels of viral mRNA after activation were similar to those measured after a productive HIV infection (compare clones F11 and G10 with NL4-3, FIG. 1C).

CC1(C)Cc2ccccc2C(NNC(=O)c2ccccn2)=N1 [Hit2] was tested, and the “induction of HIV expression as measured by increased GFP expression” value [1] was “reproducibly lead to an induction of HIV expression”.

In the case of COc1cc(/C=N/NC(=O)c2cc(-c3ccccc3)n[nH]2)cc(OC)c1O [Hit 1], the “induction of HIV expression as measured by increased GFP expression” value [1] is reported as “reproducibly lead to an induction of HIV expression”.

With CC(/C=C/C(=O)NO)=C\[C@@H](C)C(=O)c1ccc(N(C)C)cc1 [Trichostatin A] the “ability to reactivate latent HIV expression (GFP-positive cells and mean fluorescence intensity)” value (shortened to “ability”) [2] was “activated expression but to a lesser extent than NT-κB activators and in only some cell lines”.

In the case of Nc1ncn([C@H]2C[C@H](O)[C@@H](CO)O2)c(=O)n1 [aza-dC, 5-axa-2-deoxycytidine], the “ability” value [2] is reported as “little effect”.

With phytohemagglutinin [PHA] the “ability” value [2] was “induced HIV expression”.

For tetradecanoyl phorbol acetate [TPA], the “GFP expression of individual latent clones after treatment” value ([2]; clonal cell lines 4 weeks after isolation) was “all clones were activated” and the “ability” value [2] was “strongest inducer tested”.

For tumor necrosis factor alpha [TNF-α], the “HIV mRNA levels, activated versus basal conditions” value [3] was “activation of HIV transcription”, the “GFP Signal (MFI)” value ([4]; Clone 6.3) was 135 ± 43 MFI and the “GFP-Positive (%)” value ([4]; Clone 6.3) was 27 ± 9%. For the same compound, the “GFP Signal (MFI)” value ([4]; Clone 8.4) was 488 ± 74 MFI, the “GFP-Positive (%)” value ([4]; Clone 8.4) was 77 ± 6% and the “GFP Signal (MFI)” value ([4]; Clone 9.2) was 522 ± 61 MFI. For the same compound, the “GFP-Positive (%)” value ([4]; Clone 9.2) was 75 ± 7%, the “GFP Signal (MFI)” value ([4]; Clone 10.6) was 645 ± 45 MFI and the “GFP-Positive (%)” value ([4]; Clone 10.6) was 96 ± 1%. For the same compound, the “GFP Signal (MFI)” value ([4]; Clone 15.4) was 188 ± 34 MFI, the “GFP-Positive (%)” value ([4]; Clone 15.4) was 46 ± 6% and the “fraction of the cell population that became GFP positive” value ([4]; Jurkat infected with HIV-R7/E-/GFP, sorted GFP-negative population) was 1.9%. The “HIV expression (fraction of GFP positive cells and mean fluorescence intensity) in individual clones” value ([4]; individual HIV-R7/E-/GFP clones) was “HIV expression was increased in all clones”, the “ability” value [2] was “induced HIV expression” and the “p24 (pg/ml)” value ([5]; Clone 6.3) was 10,100 ± 4,573 pg/ml. For the same compound, the “p24 (pg/ml)” value ([5]; Clone 8.4) was 32,967 ± 10,537 pg/ml, the “p24 (pg/ml)” value ([5]; Clone 9.2) was 41,067 ± 9,100 pg/ml and the “p24 (pg/ml)” value ([5]; Clone 10.6) was 85,500 ± 5,981 pg/ml. The “p24 (pg/ml)” value ([5]; Clone 15.4) was 6,066 ± 1,960 pg/ml, the “increase in p24 measurement versus basal conditions” value ([5]; several representative clones) was “greater than a thousand-fold increase” and the “HIV protein expression by western blotting” value [6] was “dramatic increase in HIV protein expression”.

Reference: patent US7544467B2, “Method for the identification of compounds capable of activating latent human immunodeficiency virus (HIV)” (The J. David Gladstone Institutes, priority 2001, dated 2009)
